Results reported in PMC7389528, “Anti-tubercular derivatives of rhein require activation by the monoglyceride lipase Rv0183” (The Cell Surface, 2020).
Values after ≈ are worked out from the molar mass of the structure shown. Values joined by “and” are separate entries in the source; they are usually repeats but may differ in a detail not shown here. Equal values may be shown once. “Also recorded” adds a separate entry of the source.

Tests used:
[1] = system: Mtb clinical isolate 12611; assay: microbe, parasite or virus in culture; assay type: cell-based; settings: Mycobacterium tuberculosis
[2] = system: Mtb clinical isolate 14231; assay: microbe, parasite or virus in culture; assay type: cell-based; settings: Mycobacterium tuberculosis
M. bovis BCG = assay type: cell-based
WT Rv0183 (BCG_0220) = molecular target: T1, WT Rv0183 (BCG_0220) (Mycobacterium tuberculosis, UniProt O07427); assay type: biochemical; settings: 10 μM WT Rv0183, 5 μg compound, 37 °C, 1 h
T1 construct: poly-histidine (pET28a vector-encoded) (N); made in house; host or cells: E. coli SHuffle T7 (K12), pET28a

Rv0183-VAAQD137D = Rv0183-VAAQD137D (Mycobacterium tuberculosis, UniProt O07427, DEL137-140); assay type: biochemical, M. bovis BCG
Rv0183-S172P = Rv0183-S172P (Mycobacterium tuberculosis, UniProt O07427, S172P); assay type: biochemical, M. bovis BCG
[3] = system: M. bovis BCG HTB-04 mutant 2 (BCG_0220-S172P); assay type: cell-based

Structure (SMILES) | MIC [1] [µM] | MIC [2] [µM] | frequency of resistance (M. bovis BCG) | enzyme activity on compound (TLC) (WT Rv0183 (BCG_0220)) | enzyme activity on compound (TLC) (Rv0183-VAAQD137D) | enzyme activity on compound (TLC) (Rv0183-S172P) | IC50 [3]
O=C(OCCCCCl)c1cc(O)c2c(c1)C(=O)c1cccc(O)c1C2=O [HTB-03] | 2.64 (≈ 0.989 µg/mL) | 2.4 (≈ 0.899 µg/mL) | 83 × 10^-8 and 100 × 10^-8 | converted to rhein | minimal | no activity | 
CC(=O)Oc1cccc2c1C(=O)c1c(OC(C)=O)cc(C(=O)OCCCCCl)cc1C2=O [HTB-04] | 3.66 (≈ 1.68 µg/mL) | 2.04 (≈ 0.936 µg/mL) | 85 × 10^-8 | partially hydrolyzed to rhein; also recorded: inconclusive |  |  | 6.23 µM and 3.51 µM
NNC(=O)c1ccncc1 [INH, isoniazid, reference compound] | 142 (≈ 19.5 µg/mL) | > 292 |  |  |  |  | 
O=C(O)c1cc(O)c2c(c1)C(=O)c1cccc(O)c1C2=O [Rhein, rhein] |  |  |  | no apparent activity | no apparent activity | no apparent activity | 
